Results reported in patent US20110105389A1 (priority 2009, published 2011).

System: male Zucker fatty rats
Assay: Subchronic (7 day) oral administration in male Zucker fatty rats, Method B14
Type: in vivo, rat
Source text: B14. Effects of Subchronic Administration of Representative Compounds of the Invention in Male Zucker Fatty Rats
The objective of this study is to determine the subchronic effects of test compounds on body weight change, food and water consumption, as well as glucose homeostasis and insulin levels in male Zucker fatty rats up to 7 days upon oral administration. The male Zucker fatty rat was selected as an insulin resistance and genetically defined obesity model which is sensitive to the effect of different insulin sensitizers in acute as well as in chronic settings.
Rats were individually housed in rodent cages with soft wood bedding on the bottom and equipped with water bottles. All individual cages were clearly labeled with a cage card indicating study number, group, animal number and dose level. Each animal was uniquely identified by an animal number. The animal number was designated the day the animals arrived at the animal facility. The animal room environment was controlled (targeted ranges: temperature 22±2° C.; relative humidity 50±10%; light/dark cycle: 12 hours light, 12 hours dark, lights on from 06:00 AM to 06:00 PM). A regular rodent diet (Charles River 5075 rodent chow, Purina Mills, Canada) was provided to the animals ad libitum, after food weighing. Municipal tap water was provided to the animals ad libitum via water bottles. Fresh tap water was provided after water bottle weighing.
An acclimation period of approximately 7 days for all groups was allowed between the receipt of animals and the start of treatment to accustom the rats to the laboratory environment. On experimental day −7, animals were stratified according to body weight into an appropriate number of groups of 4 or 8 animals each.
Test compound was administered, as a solution, orally, at the doses indicated. The dose volume was 5 mL/kg/day. Groups were dosed once daily around 8:00 a.m. On Day 3, on half of the animals (Subset A) and on Day 4 on the other half (Subset B), an OGTT was performed 2 hrs post-dosing (around 10:00 a.m.). The OGTT was repeated the same way on Days 7 (Subset A) and 8 (Subset B).
For the study animals, the data collected from study Days −7 to 8 are reported. Body weights were recorded for all animals on Day −7 prior to initiation of dosing, at the time of group assignment and daily throughout the study period (Day 1-8). Food and water intake was measured daily throughout the study period (Day 1-8). On Day 1 (Subset A), Day 2 (Subset B), Day 3 (Subset A), Day 4 (Subset B), Day 7 (Subset A) and Day 8 (Subset B), animals from Groups 2 and 3 were sampled for blood into EDTA coated tubes (K2-EDTA microtainer tubes, Becton Dickinson) from a tail vein (˜100 μl) 2 hrs post-dose for PK analysis. Blood was centrifuged at 4000 rpm for 10 min. at 4° C., and the resulting plasma transferred into non-coated tubes and stored at −80° C. until analysis.
An oral glucose tolerance test (OGTT) was carried out in animals of all groups on Day 3 (half of the animals) as well as on day 4 (other half of the animals). This was done 2 hrs post-dose. Animals were subjected to an overnight fast (food removed the day before at 5:00 PM). Blood samples of approximately 20 μL each for plasma glucose and 230 μL for plasma insulin measurements were collected into EDTA coated tubes (K2-EDTA microtainer tubes, Becton Dickinson) from a tail vein, at 0 (pre-glucose), 15, 30, 60, and 120 min after oral administration of 1.5 g/kg glucose (dextrose, Sigma Aldrich, 450 mg/mL dosing solution). The glucose solution was administered by oral gavage via a stainless steel feeding needle (18×2″, Popper @ Sons, cat. # 20068-642, VWR). While glucose concentrations were determined from a 20 μL drop of blood (Accu-Chek Aviva glucometers, Roche Diagnostics), the remaining 230 μL was centrifuged at 4000 rpm for 10 min. at 4° C., and the resulting plasma transferred into non-coated tubes and stored a −80° C. for insulin determination. […]

CC[C@@H]1CCc2ccc(F)cc2OCCN[C@@H](C(C)C)C(=O)N(C)[C@@H](C(C)O)C(=O)N[C@H](Cc2c[nH]c3ccccc23)C(=O)N1 (some centres unmarked) [Compound 1505]
food consumption on a daily basis vs vehicle controls (10 mg/kg, 2 day timepoint): significant reductions | cumulative food consumption (30 mg/kg oral, FIG. 10): significant decrease | net body weight (30 mg/kg oral, over the 7 day study period, FIG. 9): significant reduction | food consumption on a daily basis vs vehicle controls (30 mg/kg, 2 day timepoint): significant reductions | OGTT blood glucose versus untreated controls (30 mg/kg, at both day 3 and day 7): decrease | insulin sensitivity index (attaining significance at the higher dose): higher | free fatty acids (both treatment groups): significantly reduced | total cholesterol (both treatment groups): significantly reduced | food consumption on a daily basis vs vehicle controls (higher dose (30 mg/kg), through the 6 day timepoint): remained significant | plasma levels (PK analysis) (oral administration): sufficient plasma levels | insulin levels (area under the curve, AUC) in OGTT (rat, in vivo): lowering effect
